Reference: the METLIN SMRT retention time set (Domingo-Almenara et al. 2019)

Assay: gradient 5% acetonitrile 3 min, to 50% in 2 min, to 85% in 15 min, held 3 min, 100 µL/min
Details: column: Zorbax Extend-C18 2.1 x 50 mm; eluents: water / acetonitrile, 0.1% formic acid
How it was run: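 Values are retention times taken from adduct peaks that software picked and an analyst inspected. The pure standards were run as mixtures of ~100 molecules on HPLC linked to a quadrupole time-of-flight mass spectrometer, in positive and negative ionization mode. A Zorbax Extend-C18 column (2.1 × 50 mm, 1.8 μm) was used at 100 μL/min with water and acetonitrile, each including 0.1% formic acid.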

Row | Compound | RP-LC retention time [s]
1 | COc1cccc(OC)c1OCC(O)CN1CCN(c2cc(Cl)ccc2C)CC1 (stereo not given) | 615
2 | Cc1csc(NC(=O)CSc2nn3c(=O)c(C)nnc3s2)n1 | 613
3 | CCCCC(=O)Nc1nc(-c2ccc3c(c2)N(CC)C(=O)CO3)cs1 | 932
4 | CCc1nc(OCC(=O)Nc2cc(Cl)ccc2Cl)c2ccccc2n1 | 964
5 | COc1cccc(NC(=O)NCC(c2cccnc2)c2c[nH]c3ccccc23)c1 (stereo not given) | 662
6 | O=C(Cn1nc2c(cc1=O)CCCC2)N[C@@H](Cc1ccccc1)C(=O)O | 682
7 | COCCc1nnc(NC(=O)c2cn(C)nc2OC)o1 | 558
8 | Cc1ccc(C)c(CNC(=O)c2cc3n(n2)CC(C)(C(=O)NCc2ccc(F)cc2)N(C)C3=O)c1 (stereo not given) | 842
9 | ONC(=NCc1ccccc1)c1ccccc1 | 690
10 | CCC(=O)N1CCc2cc(C(=O)NCc3cccs3)ccc21 | 743
11 | CN(CCc1ccccn1)c1ccc2c(c1)C(=O)c1ccccc1-2 | 662
12 | O=C(NCc1cccs1)C1CCCN(C(=O)c2cc(-c3ccccn3)n[nH]2)C1 (stereo not given) | 641
13 | Cc1ccc(CNC(=O)C2CCN(Cc3cn(C)c4ccc(Cl)cc34)CC2)cc1 | 733
14 | CN(Cc1ccoc1)C(=O)Nc1ccccc1 | 785
15 | CC1CCCN(C(=O)C(=O)NCc2n[nH]c(=O)c3ccccc23)C1 (stereo not given) | 644
16 | CCOC(=O)c1nc(N2CCN(c3ccccc3F)CC2)c2c(C)noc2n1 | 1010
17 | Cc1cc(C)c(NC(=O)C23CCC(C)(C(=O)O2)C3(C)C)c([N+](=O)[O-])c1 (stereo not given) | 884
18 | O=C(c1cc(=O)[nH]c2ccccc12)N1CCCC1 | 598
19 | Cc1cc(N2CCCC2)nc(N2CCN(C(=O)C3CCCC3)CC2)n1 | 670
20 | Cc1nc2c(NS(=O)(=O)c3ccc(Cl)cc3)cccn2n1 | 778
21 | CCCN1CCN(S(=O)(=O)c2cc(-c3nnc(C(C)C)o3)co2)CC1 | 618
22 | COCCCNC(=O)CN1C(=O)C2CCCCN2c2ccc(C(=O)N3CCCC3)cc21 (stereo not given) | 696
23 | Cc1cccc(NC(=O)N2CCCC2c2nc(-c3ccccc3)no2)c1 (stereo not given) | 984

Row | Compound | RP-LC retention time [s]
24 | Fc1ccc(-c2nc(-c3ccc(-n4cccn4)nc3)no2)cc1F | 1070
25 | COc1ccc(Cn2cccc(S(=O)(=O)N3CCCC3)c2=O)cc1F | 843
26 | CCNC(=O)c1ccc(-c2ccc3c(c2)CCN3C(C)=O)cc1 | 691
27 | O=C(NCCCN1CCOCC1)c1ccc2ccnc(N3CCN(c4ccccc4)CC3)c2c1 | 586
28 | O=C(NCc1ccco1)c1ccc2c(c1)CCCN2C(=O)c1cccc(Cl)c1 | 889
29 | CCOC(=O)c1cnc2nc(C)ccc2c1Nc1ccc(S(N)(=O)=O)cc1 | 589
30 | Cc1noc(C)c1S(=O)(=O)NCCOc1cc(N2CCOCC2)ncn1 | 643
31 | Cc1ccc(C)c(N2CC(c3nc(-c4ccc5c(c4)OCO5)no3)CC2=O)c1 (stereo not given) | 998
32 | Cc1ccc(NC(=O)Cn2nc(N3CCCC(C)C3)c3ccccc3c2=O)cc1 (stereo not given) | 1140
33 | O=C(Cn1nc(C(=O)N2CCCC2)c2ccccc21)N1CCN(c2cccc(C(F)(F)F)c2)CC1 | 983
34 | O=C(Cc1cccs1)N1CC(c2noc(C3CCCN3CC3CC3)n2)C1 (stereo not given) | 599
35 | Cc1cc(N2CCC(C)CC2)n2nc(CN3CCN(c4ccccn4)CC3)nc2n1 | 599
36 | COCC1CN(C(=O)c2ccc(Br)o2)CCC1(F)F (stereo not given) | 847
37 | CCn1ccc2sc(C)c(C(=O)NC3CCCCCC3)c2c1=O | 894
38 | Cc1ccc(-c2nc(NCC3CCCO3)ncc2C(=O)O)cc1 (stereo not given) | 735
39 | CCn1c(=O)sc2cc(S(=O)(=O)N3CCC(C(=O)Nc4cccc(F)c4)CC3)ccc21 | 941
40 | CS(=O)(=O)N1CCC(C(=O)Nc2sccc2C#N)CC1 | 662
41 | CSc1nc2ccc3nc(NC(=O)c4ccc([N+](=O)[O-])o4)sc3c2s1 | 930
42 | Cc1ccccc1CNC(=O)c1ccc2c(c1)ncn2CCN1CCCC1 | 582
43 | O=C(CCc1nnn2c1CN(C(=O)NC1CCCC1)CC2)N1CCOCC1 | 615
44 | Cc1nc(C)c(C(=O)N2CCCn3cc(-c4ccccc4F)nc32)s1 | 679
45 | CNC(=O)C1CCCN(c2nc3ncn(CC(=O)Nc4cccc(F)c4)c(=O)c3s2)C1 (stereo not given) | 645
46 | COc1cccc(OCC(O)CN2CCN(c3ccc(F)cc3)CC2)c1 (stereo not given) | 687

Row | Compound | RP-LC retention time [s]
47 | O=C(NCc1ccc(Br)cc1)C1CCN(c2nnc(-c3ccccc3)o2)CC1 | 884
48 | CN(CCc1noc(COc2ccc(Cl)cc2)n1)C(=O)Nc1cccc(F)c1 | 984
49 | Cc1ccc(CNC(=O)C2(C)Cn3cnc(C(=O)NC4CCCCC4)c3C(=O)N2C2CC2)cc1 (stereo not given) | 819
50 | O=C(c1ccc2ncccc2c1)N1CCN(c2cc(-c3cccs3)[nH]n2)CC1 | 641
51 | CCOc1ccc(CNc2nc3ccncc3n(CC)c2=O)cc1OC | 618
52 | COc1ccc(NC(=O)c2cnc(N3CCN(C)CC3)nc2N)cc1 | 578
53 | CCc1cc(-c2csc(S(=O)(=O)N3CCN(c4cccc(Cl)c4)CC3)c2)on1 | 1200
54 | CCc1noc(C2(NC(=O)COc3ccc(Cl)cc3)CCCCC2)n1 | 1040
55 | Cc1ccc2c(c1)C(O)(CC(=O)c1ccc(NC(=O)C3CCCCC3)cc1)C(=O)N2 (stereo not given) | 766
56 | O=C1CCCc2cc(S(=O)(=O)N3CCC(C(=O)N4CCc5ccccc54)CC3)ccc2N1 | 802
57 | CCN1CCCn2cc(S(=O)(=O)NCc3ccc(Cl)cc3)cc2C1=O | 767
58 | CC(C)NC(=O)CN1C(=O)C2CCCCN2c2ccc(S(=O)(=O)N3CCCCC3)cc21 (stereo not given) | 850
59 | Cc1ccnc(Nc2nc(-c3ccc(C)c(C)c3)cs2)c1 | 902
60 | Cc1ccc2c(c1)C(c1ccc(F)cc1)N(C(=O)c1ccc(S(=O)(=O)N(C)C)cc1)CC(=O)N2 (stereo not given) | 885
61 | CCc1nc2cc(N3CCCC(C(=O)NCCN(C)C)C3)cnc2nc1CC (stereo not given) | 604
62 | CCOc1ccc(-n2nnc3c(=O)n(C/C=C/c4ccccc4)cnc32)cc1 | 969
63 | O=C(c1cn(-c2cc(N3CCCCC3)ncn2)cn1)N1CCN(c2ccccc2)CC1 | 944
64 | COC(=O)C1=CN(c2ccccc2OC)c2ccccc2S1(=O)=O | 824
65 | COc1ccc(Cl)cc1NS(=O)(=O)c1cc(-c2cc(C(F)(F)F)on2)sc1C | 1220
66 | Cc1cc(C)cc(C(=O)N2CCCC(C(=O)NCCN3CCCC3)C2)c1 (stereo not given) | 606
67 | CCc1ccccc1NC(=O)Cn1c(C)nc2c(sc3nc(-c4ccccc4)ccc32)c1=O | 1080
68 | CCn1ncn2cc(S(=O)(=O)Nc3ccc(F)c(F)c3)cc2c1=O | 884
69 | COc1ccccc1CN1CC(F)(F)C[C@H]1COc1ccncc1 | 623

Row | Compound | RP-LC retention time [s]
70 | CC(C(=O)NC1CCSC1=O)n1nc(-n2cccn2)ccc1=O (stereo not given) | 616
71 | CCCC(=O)c1cn(CC(=O)NCc2ccc3c(c2)OCCCO3)c2ccccc12 | 876
72 | O=C1CSc2ccc(S(=O)(=O)N3CCC(C(=O)NC4CC4)CC3)cc2N1 | 662
73 | Cc1cc(C)n(-c2ccc(C(=O)NCc3ccc(Cl)cc3)cn2)n1 | 990
74 | Cc1cccc(N2CCN(C(=O)c3c(C)sc4ccn(C)c(=O)c34)CC2)c1 | 769
75 | Cc1ccccc1S(=O)(=O)N1CCC2(CC1)NCCN=C2NCc1cc(F)cc(F)c1 | 730
76 | Cn1c(=O)c2cc(C(=O)NCCCc3ccccc3)sc2n(C)c1=O | 765
77 | O=c1n(Cc2ccc(F)cc2)nc2c(S(=O)(=O)N3CCCC3)cccn12 | 806
78 | COc1ccc(N2CCN(C(=O)C3CCN(S(=O)(=O)c4cn(C)c(C)n4)CC3)CC2)cc1 | 651
79 | Cc1cccc(NC(=O)c2ccc(=O)n(C)n2)n1 | 595
80 | O=C(Cn1cnc2nc(N3CCCC(C(=O)NC4CC4)C3)sc2c1=O)Nc1cccc(F)c1 (stereo not given) | 655
81 | COc1ccc(-c2nc(-c3ccc4oc(C)nc4c3)no2)cn1 | 1060
82 | COCC1CCN(C(=O)CCC2CCN(c3cc(NC4CC4)ncn3)CC2)CC1 | 636
83 | O=C(Nc1cc(F)ccc1F)C1CCN(c2ccc(=O)n(-c3ccc(F)cc3)n2)CC1 | 874
84 | CS(=O)(=O)c1ccc(CC(=O)Nc2cccc3ccccc23)cc1 | 710
85 | Cc1nn(C(C)C(=O)NCc2ccccn2)c(=O)c2c(C)n(-c3ccccc3)nc12 (stereo not given) | 638
86 | COc1ccc(Cl)cc1NS(=O)(=O)c1cn(CC(C)C)c2ncccc12 | 765
87 | O=C(c1ccc(Cl)cc1)N1CCN(C(=O)c2nnn3c2COC(c2ccccc2)C3)CC1 (stereo not given) | 888
88 | O=C(C1CCN(c2nnc(-n3cccc3)s2)CC1)N1CCN(c2ncccn2)CC1 | 738
89 | CC(C)CNC(=O)c1ccc2c(c1)Sc1ncccc1C(=O)N2C(C)C | 805
90 | CCCC(=O)Nc1ccc2c(c1)C(=O)CC(c1ccc3c(c1)OCO3)O2 (stereo not given) | 808
